Data reported in PubChem BioAssay (NCI).
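All cell lines were grown in 96-well plates and treated with compound for 48 hours. GI50 is the concentration that inhibits growth by half. TGI is the concentration that stops growth completely.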

What was measured:
Test in all cases: NCI-60 cell line screen, 48 h
SR leukemia = tested on: SR leukemia
A549 NSCLC = tested on: A549 NSCLC
HL-60(TB) leukemia = tested on: HL-60(TB) leukemia
CAKI-1 renal = tested on: CAKI-1 renal
NCI-H23 lung = tested on: NCI-H23 lung
HCC-2998 colon = tested on: HCC-2998 colon
SNB-19 CNS = tested on: SNB-19 CNS
K-562 leukemia = tested on: K-562 leukemia
KM12 colon = tested on: KM12 colon
NCI-H226 lung = tested on: NCI-H226 lung
COLO 205 colon = tested on: COLO 205 colon
UO-31 renal = tested on: UO-31 renal
OVCAR-4 ovarian = tested on: OVCAR-4 ovarian
LOX IMVI melanoma = tested on: LOX IMVI melanoma
U251 CNS = tested on: U251 CNS
SK-MEL-5 melanoma = tested on: SK-MEL-5 melanoma
NCI-H522 lung = tested on: NCI-H522 lung
786-0 renal = tested on: 786-0 renal
SK-OV-3 ovarian = tested on: SK-OV-3 ovarian

Structure (SMILES)	TGI (SR leukemia) [µM]	TGI (A549 NSCLC) [µM]	TGI (HL-60(TB) leukemia) [µM]	TGI (CAKI-1 renal) [µM]	TGI (NCI-H23 lung) [µM]	TGI (HCC-2998 colon) [µM]	TGI (SNB-19 CNS) [µM]	TGI (K-562 leukemia) [µM]	TGI (KM12 colon) [µM]	TGI (NCI-H226 lung) [µM]	TGI (COLO 205 colon) [µM]	TGI (UO-31 renal) [µM]	TGI (OVCAR-4 ovarian) [µM]	TGI (LOX IMVI melanoma) [µM]	TGI (U251 CNS) [µM]	TGI (SK-MEL-5 melanoma) [µM]	TGI (NCI-H522 lung) [µM]	TGI (786-0 renal) [µM]	TGI (SK-OV-3 ovarian) [µM]	GI50 (HCC-2998 colon) [µM]
COc1cccc(/C=C2\C(=O)N(C(=O)Cc3ccccc3)N=C2C)c1	> 100	> 100	> 100	> 100	> 100	> 100	> 100	> 100	> 100	> 100	> 100	> 100	> 100	> 100	> 100	> 100	> 100	> 100		
Nn1c(N=Nc2c(O)[nH]c3ccccc23)n[nH]c1=S	> 100	> 100	> 100	> 100	> 100	> 100	> 100	> 100	> 100	> 100	> 100	> 100	> 100	> 100	> 100		> 100	> 100	> 100	
CC(C)(C)C(=O)[CH-]C(=O)C(F)(F)C(F)(F)C(F)(F)F.CC(C)(C)C(=O)[CH-]C(=O)C(F)(F)C(F)(F)C(F)(F)F.[O-]CC1OC(O)C(O)C(O)C1O.[O-]CC1OC(O)C(O)C(O)C1O.[Ti+4]	> 100	> 100	> 100	> 100	> 100	> 100	> 100	> 100	> 100	> 100	> 100	> 100	> 100	> 100	> 100	> 100		> 100	> 100	> 100
CN(NC(=O)c1cccs1)C1=NCCN1	> 100	> 100	> 100		> 100	> 100	> 100	> 100	> 100	> 100	> 100	> 100	> 100	> 100	> 100	> 100	> 100	> 100	> 100	
CN(CC#N)C(=O)Cc1ccc([N+](=O)[O-])cc1	> 10	> 10	> 10	> 10	> 10	> 10	> 10	> 10	> 10	> 10	> 10	> 10	> 10	> 10	> 10	> 10		> 10	> 10	
COCC12CC(CC1=O)C1C2ON2c3ccccc3C(=O)C12c1ccccc1 (stereo not drawn)	> 100	> 100	> 100		> 100	> 100	> 100	> 100		> 100	> 100	> 100	> 100		> 100	> 100	> 100	> 100	> 100	
C[N+](C)(Cc1ccc(NC(=O)CCCC(=O)ON2C(=O)CCC2=O)cc1)c1ccccc1	< 0.01	2.08	> 100	> 100	> 100		> 100	> 100	> 100	0.0133			2.29	> 100	> 100		> 100	> 100	> 100	
CC1CC(NN(C)C)C2(C(N)=O)C(N)=NC(=O)C12C#N (stereo not drawn)	> 100	> 100		> 100	> 100	> 100	> 100	> 100	> 100	> 100	> 100	> 100		> 100	> 100	> 100	> 100	> 100	> 100	
COc1ccc(Nc2nc3ccccc3nc2C(=O)O)cc1	> 100	> 100	> 100	> 100	> 100	23.1	> 100	> 100	> 100		> 100	> 100	> 100	> 100	> 100	> 100	> 100	> 100	> 100	
CCOC(=O)C1CC/C(=C(/C#N)C(=O)OC)N1 (stereo not drawn)	> 100	> 100	> 100	> 100	> 100	> 100	> 100	> 100	> 100		> 100	> 100	> 100	> 100	> 100	> 100	> 100	> 100	> 100	
COc1ccc(/C(Cl)=C/c2ccc(Cl)c(Cl)c2)cc1	47.9	83.6	44.9		63	43.2	> 100	> 100		53.2	54	> 100	> 100		50.4	50.3	41.1	> 100	> 100	
COC(=O)/C(=C\C(=O)c1ccc(Br)cc1)NN=C(c1ccccc1)c1ccccc1	> 10	> 10	> 10	> 10	> 10	> 10		> 10	> 10		> 10		> 10	> 10		> 10		> 10	> 10	
c1ccc2nc3cc4c(cc3nc2c1)NC12CCCCC1CC1=C(CCCC1)N42 (stereo not drawn)	1.51	> 10	8.31	> 10	> 10	> 10	> 10	5.5	8.14	6.57	3.6		6.96	> 10	> 10	5.16	8.37	> 10	> 10	
